Consider 14 compounds from patent publication US9428477B2, “Trans-2-decenoic acid derivative and drug containing same” (NIPPON ZOKI PHARMACEUTICAL CO., LTD., priority 2012, dated 2016).

For the first series, the system named is rats with paclitaxel-induced peripheral nerve disorder. Kind of series: Rat peripheral nerve disorder induced by paclitaxel, von Frey test. In kind it is in vivo. The settings on record: ip, test drug intraperitoneally, single dose, higher of values 1 and 5 hours after administration, mechanical stimulus of right hind limb, normal threshold 15, read-out: Recovery Rate of 50% Reaction Threshold Value. How it is done: The effects of the compounds of the present invention were evaluated for a peripheral nerve disorder which is a side effect induced by the administration of an anti-cancer agent paclitaxel, such as hyperesthesia including allodynia induced by mechanical stimuli, which is a severe pain induced by such tactile stimuli which usually cause no pains. The compound of the present invention was intraperitoneally administered to rats as a test drug to conduct a von Frey test.
Male SD rats of six weeks age (six rats per group) were used as experimental animals, and paclitaxel (2 mg/kg) was intraperitoneally administered every other day for four times in total to prepare rats with paclitaxel-induced peripheral nerve disorder. During the period of 18 to 25 days or during the period of 20 to 27 days after the initiation of paclitaxel administration, the test drug was intraperitoneally administered in a single dose of […], and the following von Frey test was conducted.
(§1) The rats of the above (1) were placed in a transparent acrylic cage with a wire-meshed floor and habituated for about three minutes, and the 50% reaction threshold values to the mechanical stimulus of right hind limb were measured before administration of the test drug and after 1 and 5 hours from the initiation of the administration.
(§2) The measurement was conducted using von Frey filaments (manufactured by North Coast Medical Inc.) in accordance with the methods of Chaplan, et al. (Journal of Neuroscience Methods, 53(1), 55-63, 1994) and Dixon, et al. (Annual Review of Pharmacology and Toxicology, 20, 441-462, 1980). […] The case where the rat escaped at the instance of removing the filament was also called positive. When the positive reaction was found, stimulus was applied similarly with a filament of one rank weaker, and in the absence of the reaction, stimulus was similarly applied with a filament of one rank stronger, and a point where the reaction changed from negative to positive or from positive to negative was called the first two reactions. Subsequently, stimuli were applied for continuously four times by the same up-down method. A 50% reaction threshold value to the mechanical stimulus was measured using the reaction to the six stimuli in total and then (mean value)±(standard error) for each group was calculated. Incidentally, when stimulus reached to a load of 15.0 g without positive reaction, or when positive reaction continued to a load of 0.4 g, 15.0 g or 0.25 g was adopted as each of 50% reaction threshold values. With regard to the higher 50% reaction threshold value between the 50% threshold values after 1 hour and 5 hours from administration of a test drug, a recovery rate (%) of the 50% reaction threshold value was calculated by the following expression in which 15 was taken as a normal threshold value.
Recovery rate (%) of 50% reaction threshold value=[(50% reaction threshold value after 1 hour or 5 hours from administration of test drug)−(50% reaction threshold value before administration of test drug)]/[(Normal threshold value)−(50% reaction threshold value before administration of test drug)]×100
For `CCCCCCC/C=C/C(=O)N1CCN(c2ccccc2)CC1` [Compound 25, 1-((E)-2-Decenoyl)-4-phenylpiperazine], the change in vivo at 0.3 mg/kg was 55.3%.
As to `CCCCCCC/C=C/C(=O)N1CCN(CCN(C)C)CC1` [Compound 22, 1-((E)-2-Decenoyl)-4-[2-(dimethylamino)ethyl]piperazine], the change in vivo at 0.3 mg/kg stood at 29.7%.
Regarding `CCCCCCC/C=C/C(=O)N1CCN(CCC(=O)O)CC1` [Compound 21, 3-[4-((E)-2-decenoyl)piperazin-1-yl]propionic acid], the change in vivo at 0.3 mg/kg turned out to be 34.8%.
In the case of `CCCCCCC/C=C/C(=O)N1CCC(=O)CC1` [Compound 7, 1-((E)-2-decenoyl)piperidin-4-one], the change in vivo at 0.3 mg/kg is 45.2%.
On the same count and under the same terms, then `CCCCCCC/C=C/C(=O)N1CCCC1` [Compound 1, 1-((E)-2-Decenoyl)pyrrolidine], with 58.2%; and `CCCCCCC/C=C/C(=O)N1CCN(C(C)C)CC1` [Compound 20, 1-((E)-2-Decenoyl)-4-isopropylpiperazine], with 26.9%; and `CCCCCCC/C=C/C(=O)N1CCSCC1` [Compound 18, 4-((E)-2-decenoyl)thiomorpholine], with 48.9%.
Same read-out and setting: with `CCCCCCC/C=C/C(=O)N1CCC(C)CC1` [Compound 6, 1-((E)-2-Decenoyl)-4-methylpiperidine] the figure was 33.8%.
As to `CCCCCCC/C=C/C(=O)N1CCN(C2CCCCC2)CC1` [Compound 23, 4-Cyclohexyl-1-((E)-2-decenoyl)piperazine], the change in vivo at 0.3 mg/kg worked out at 33%.
As to `CCCCCCC/C=C/C(=O)N1CCN(Cc2ccccc2)CC1` [Compound 26, 4-Benzyl-1-((E)-2-decenoyl)piperazine], the change in vivo at 0.3 mg/kg was 24.1%.
With `CCCCCCC/C=C/C(=O)N1CCCCC1` [Compound 5, 1-((E)-2-Decenoyl)piperidine], the change in vivo at 0.3 mg/kg came to 41.6%.
Regarding `CCCCCCC/C=C/C(=O)N1CCSC1` [Compound 4, 3-((E)-2-Decenoyl)thiazolidine], the change in vivo at 0.3 mg/kg was determined as 43.7%.
The same measure, in the same setting: with `CCCCCCC/C=C/C(=O)N1CCN(CCc2ccccc2)CC1` [Compound 27, 1-((E)-2-Decenoyl)-4-(2-phenylethyl)piperazine] the figure was 69.1%.
Consider `CCCCCCC/C=C/C(=O)N1CCC[C@H]1C(=O)O` [Compound 2, (S)-1-((E)-2-Decenoyl)pyrrolidine-2-carboxylic acid], for which the change in vivo at 0.3 mg/kg was 23.5%.

A further series deals with MAP kinase (ERK 1/2). The series can be described thus: Activation (phosphorylation) of MAP kinase in cultured cerebral cortex nerve cells, Western immunoblotting. In kind it is cell-based. The following applies: 0.5 h; fetal rat cerebral cortex nerve cells; compound 250 μg/ml in 0.1% DMSO; 30 minutes; relative to control = 1.00; read-out: Ratio of pMAPK to MAPK. How it is done: With regard to the compounds of the present invention, the activation of MAP kinase (ERK 1/2) was measured in accordance with a Western immunoblotting in the following manner.
Nerve cells were dispersed from cerebral cortex of a fetal rat of 17 days age, and the nerve cells were cultured for one day in a Dulbecco's modified Eagle's medium (DMEM) containing 5% fetal bovine serum. The culture medium was exchanged with a serum-free medium (B27 supplemented Neurobasal; Invitrogen), and the nerve cells were cultured at the density of 20,000 to 40,000 cells/cm^2 in a polyornithine-coated culture dish.
After three days, the compound of the present invention was added, and the culture was continued for 30 minutes. Thereafter, the cells were recovered on ice using a solution containing a phosphatase inhibitor where Tris-HCl buffer was used as a base. The protein concentration of the resulting cell extract was quantified with a BCA Protein Assay Kit (Takara Bio Co., Ltd.), and a certain amount of the protein (3 μg for the measurement of MAP kinase and 5 μg for the measurement of phosphorylated MAP kinase) was subjected to polyacrylamide gel electrophoresis. The protein was transferred from the electrophoresed gel to a PVDF membrane, and Western immunoblotting was carried out using each of an anti-MAP kinase antibody (Cell Signaling Technology) and an anti-phosphorylated MAP kinase antibody (Cell Signaling Technology) of the primary antibody.
Subsequently, the reaction with an alkaline phosphatase-labeled anti-rabbit IgG antibody (Promega) of the secondary antibody was carried out, and the enzymatic activity was allowed to develop color, to measure MAP kinase (MAPK) and the phosphorylated MAP kinase (pMAPK).
Incidentally, each of the compounds of the present invention was dissolved in 0.1% DMSO to adjust its concentration to 250 μg/ml. As to the control, 0.1% DMSO was added.
The intensity of the concentration of the bands of eletrophoresed the gel was calculated and quantified using Image J (K. K. Bioarts). The numerical values for the MAPK when using the compounds of the present invention were each divided by the numerical value for the MAPK of the control, and the numerical values for the pMAPK when using the compounds of the present invention were divided by the numerical value for the pMAPK of the control, whereby a ratio of the MAPK when using each of the compounds of the present invention to the control, and a ratio of the pMAPK when using each of the compounds of the present invention to the control were obtained. Subsequently, the ratio of the pMAPK to the control obtained was divided by the ratio of the MAPK to the control to obtain a ratio of the pMAPK to the MAPK.
(In general: In western blotting, separated proteins are transferred to a membrane and probed.)
For the compound `CCCCCCC/C=C/C(=O)N1CCN(CCC(=O)O)CC1` [Compound 21, 3-[4-((E)-2-decenoyl)piperazin-1-yl]propionic acid], the fold induction at 250 µg/mL is 1.54.
As to `CCCCCCC/C=C/C(=O)N1CCC(=O)CC1` [Compound 7, 1-((E)-2-decenoyl)piperidin-4-one], the fold induction at 250 µg/mL is 1.62.
As to `CCCCCCC/C=C/C(=O)N1CCN(C(C)C)CC1` [Compound 20, 1-((E)-2-Decenoyl)-4-isopropylpiperazine], the fold induction at 250 µg/mL worked out at 1.27.
Regarding `CCCCCCC/C=C/C(=O)N1CCSCC1` [Compound 18, 4-((E)-2-decenoyl)thiomorpholine], the fold induction at 250 µg/mL turned out to be 1.28.
`CCCCCCC/C=C/C(=O)N1CCC(C)CC1` [Compound 6, 1-((E)-2-Decenoyl)-4-methylpiperidine]: the fold induction at 250 µg/mL amounted to 1.71.
Same read-out and setting: with `CCCCCCC/C=C/C(=O)N1CCN(C2CCCCC2)CC1` [Compound 23, 4-Cyclohexyl-1-((E)-2-decenoyl)piperazine] the figure was 1.3; with `CCCCCCC/C=C/C(=O)N1CCN(Cc2ccccc2)CC1` [Compound 26, 4-Benzyl-1-((E)-2-decenoyl)piperazine], 1.48.
On the same count and under the same terms, with `CCCCCCC/C=C/C(=O)N1CCSC1` [Compound 4, 3-((E)-2-Decenoyl)thiazolidine] the figure was 1.47; with `CCCCCCC/C=C/C(=O)N1CCN(CCc2ccccc2)CC1` [Compound 27, 1-((E)-2-Decenoyl)-4-(2-phenylethyl)piperazine], 1.44.
On the same count and under the same terms, with `CCCCCCC/C=C/C(=O)N1CCC[C@H]1C(=O)O` [Compound 2, (S)-1-((E)-2-Decenoyl)pyrrolidine-2-carboxylic acid] the figure was 1.28.

Another series concerns MIA-induced OA rats. The series can be described thus: Analgesic action against osteoarthritis model rats (MIA-induced OA), von Frey test. In kind it is in vivo, rat. The following applies: intraperitoneally, single dose of 500 μg/kg, hyperalgesia of OA induced by MIA. As for the experimental part: as §1
as §2, with “value. […]” for “value.”
A 50% reaction threshold value to the mechanical stimulus of male Wistar rats of six weeks age was measured (the measurement method will be mentioned later), and a normal control group was selected. […]
With regard to the male Wistar rats of six weeks age used as experimental animals except the normal control group, their 50% reaction threshold values to the mechanical stimulus (the measuring method will be mentioned later) and body weights were measured after 24 days from the administration of MIA mentioned in (1) and then 3 groups, i.e. a normal control group, an onset control group, and a test drug-administered group, six rats per group, were organized. […]
For the compound `CCCCCCC/C=C/C(=O)N1CCN(c2ccccc2)CC1` [Compound 25, 1-((E)-2-Decenoyl)-4-phenylpiperazine], the “Recovery Rate of 50% Reaction Threshold” value came out at 18.9%.
The same measure, in the same setting: with `CCCCCCC/C=C/C(=O)N1CCN(CCN(C)C)CC1` [Compound 22, 1-((E)-2-Decenoyl)-4-[2-(dimethylamino)ethyl]piperazine] the figure was 13.2%.
With `CCCCCCC/C=C/C(=O)N1CCCC1` [Compound 1, 1-((E)-2-Decenoyl)pyrrolidine], the “Recovery Rate of 50% Reaction Threshold” value worked out at 24.2%.
Take `CCCCCCC/C=C/C(=O)N1CCCCC1` [Compound 5, 1-((E)-2-Decenoyl)piperidine]: the “Recovery Rate of 50% Reaction Threshold” value is 35.8%.

Test system in another series: not given
Assay: not given
Conditions: not given
By melting point is commonly meant the temperature, or range, at which the solid turns liquid. On to `CCCCCCC/C=C/C(=O)N1CCN(CCC(=O)O)CC1` [Compound 21, 3-[4-((E)-2-decenoyl)piperazin-1-yl]propionic acid], for which the melting point is 53 to 55 °C.
Consider `CCCCCCC/C=C/C(=O)N1CCN(C2CCCCC2)CC1` [Compound 23, 4-Cyclohexyl-1-((E)-2-decenoyl)piperazine], for which the melting point fell in the range of 33 to 34 °C.
Turning to `CCCCCCC/C=C/C(=O)N1CCN(Cc2ccccc2)CC1` [Compound 26, 4-Benzyl-1-((E)-2-decenoyl)piperazine], the melting point is 62 to 63 °C.
On the same count and under the same terms, then `CCCCCCC/C=C/C(=O)N1CCN(CCc2ccccc2)CC1` [Compound 27, 1-((E)-2-Decenoyl)-4-(2-phenylethyl)piperazine], with 33 to 34 °C.
